Assay results from US20110217715A1, “GENE EXPRESSION IN DUCHENNE MUSCULAR DYSTROPHY” (CHILDREN'S HOSPITAL MEDICAL CENTER, priority 2008, published 2011).

Tested on: mRNA expression in peripheral blood of individuals with DMD
Test: Whole-blood gene expression microarray: DMD administered deflazacort vs DMD administered prednisone
Format: in vivo, human
Procedure: Fifteen ml of blood was collected from each individual into 6 PAXgene® Vacutainer® tubes (PreAnalytiX, Germany) by antecubital fossa venipuncture. PAXgene® tubes contain a proprietary reagent that immediately stabilizes RNA, thus reducing RNA degradation and minimizing gene expression changes following phlebotomy. The tubes were then inverted 20 times, then remained undisturbed for 2 h at room temperature (about 19° C. to about 22° C.), and then stored at -70° C. until processed. Total RNA was isolated using the Paxgene® blood RNA kit (PreAnalytiX, Germany) according to the manufacturers instructions. The RNA isolated is from all cells in whole blood. Typical yields of total RNA isolated from about 7.5 ml of human whole blood were between 10 μg RNA and 40 μg RNA. RNA quality and purity was analyzed by spectrophotometry using the Nanodrop ND-1000, and RNA integrity was analyzed using the Agilent 2100 Bioanalyzer. […] Sample labeling, hybridization to chips, and image scanning were performed using standard Affymetrix protocols. For each whole blood sample from control individuals and individuals with DMD, total RNA was labeled using the One-Cycle Target Labeling protocol and hybridized to the arrays. […] Double-stranded cDNA synthesis, biotin-labeled cRNA synthesis, and cRNA fragmentation were performed according to the Affymetrix GeneChip Eukaryotic Expression Analysis protocol. The labeled, fragmented cRNA (15 μg) was hybridized at 45° C. overnight. After hybridization, the array was washed and stained. The arrays were scanned with an argon-ion laser at λ=570 nm, with a resolution of 3 μm/pixel (Affymetrix, Inc.). After scanning the array, the raw probe level values for each probe were saved in Affymetrix.cel files. […] Statistical analyses, including t-test analyses, unsupervised hierarchical clustering, and principal component analyses were conducted using Genespring 7.2 software ([…]® 7, Silicon Genetics, Redwood City Calif.). […] Corrections for multiple comparisons used a Benjamini-Hochberg False Discovery Rate (FDR) of 0.05, disclosed in Tang et al., J Cereb Blood Flow Metab 26 (2006) 1089, which is expressly incorporated by reference herein in its entirety. […] Sample processing and array hybridization, probe-level data analysis, and statistical analysis were identical to Example 1.

**Q.** With `CC(=O)OCC(=O)[C@@]12N=C(C)O[C@@H]1C[C@H]1[C@@H]3CCC4=CC(=O)C=C[C@]4(C)[C@H]3[C@@H](O)C[C@@]12C` [deflazacort] as the molecule, how does the p-value (gene PECAM1, Genbank AA702701, Nucleic Acid No. 2155) read?
**A.** 0.00909

**Q.** And the p-value (gene PECAM1, Genbank M37780, Nucleic Acid No. 2154)?
**A.** 0.00421

**Q.** And the p-value (gene PF4V1, Genbank NM_002620, Nucleic Acid No. 2156)?
**A.** 0.0164

**Q.** What about the p-value (gene PFKFB3, Genbank NM_004566, Nucleic Acid No. 2157) of the same molecule?
**A.** 0.0338

**Q.** What about the p-value (gene PHACTR2, Genbank AA551142, Nucleic Acid No. 2158) of the same molecule?
**A.** 0.039

**Q.** And the p-value (gene PHACTR2, Genbank NM_014721, Nucleic Acid No. 2159)?
**A.** 0.0451

**Q.** What about the p-value (gene PHCA, Genbank R12678, Nucleic Acid No. 2160) of the same molecule?
**A.** 0.0221

**Q.** And the p-value (gene PHF21A, Genbank BC015714, Nucleic Acid No. 2161)?
**A.** 0.0231

**Q.** And the p-value (gene PHGDHL1, Genbank AF339764, Nucleic Acid No. 2162)?
**A.** 0.0444

**Q.** What about the p-value (gene PIAS1, Genbank AI732802, Nucleic Acid No. 2163) of the same molecule?
**A.** 0.0349

**Q.** What about the p-value (gene PICALM, Genbank AL135735, Nucleic Acid No. 2164) of the same molecule?
**A.** 0.0165

**Q.** What about the p-value (gene PICALM, Genbank AV722190, Nucleic Acid No. 762) of the same molecule?
**A.** 0.0363

**Q.** And the p-value (gene PLEK, Genbank NM_002664, Nucleic Acid No. 2165)?
**A.** 0.000252

**Q.** What about the p-value (gene PLEKHA2, Genbank BF347859, Nucleic Acid No. 886) of the same molecule?
**A.** 0.0183

**Q.** And the p-value (gene PLEKHM1, Genbank AB002354, Nucleic Acid No. 2166)?
**A.** 0.0134

**Q.** And the p-value (gene PLSCR1, Genbank AI825926, Nucleic Acid No. 2167)?
**A.** 0.0487

**Q.** What about the p-value (gene PLXNB2, Genbank BC004542, Nucleic Acid No. 2168) of the same molecule?
**A.** 0.0177

**Q.** And the p-value (gene PPGB, Genbank NM_000308, Nucleic Acid No. 2170)?
**A.** 0.0193

**Q.** And the p-value (gene PPIG, Genbank AW970944, Nucleic Acid No. 2171)?
**A.** 0.011

**Q.** What about the p-value (gene PPM1F, Genbank BC013798, Nucleic Acid No. 2172) of the same molecule?
**A.** 0.0208

**Q.** What about the p-value (gene PPP3CA, Genbank AA532718, Nucleic Acid No. 2173) of the same molecule?
**A.** 0.0165

**Q.** And the p-value (gene PRKACA, Genbank NM_002730, Nucleic Acid No. 2174)?
**A.** 0.00184

**Q.** What about the p-value (gene PRKAR1A, Genbank AI682905, Nucleic Acid No. 2175) of the same molecule?
**A.** 0.0262

**Q.** What about the p-value (gene PRKAR2B, Genbank NM_002736, Nucleic Acid No. 1688) of the same molecule?
**A.** 0.0441

**Q.** And the p-value (gene PRKCD, Genbank NM_006254, Nucleic Acid No. 2176)?
**A.** 0.0077

**Q.** What about the p-value (gene PROK2, Genbank AF182069, Nucleic Acid No. 2177) of the same molecule?
**A.** 0.0338

**Q.** What about the p-value (gene PSENEN, Genbank NM_018468, Nucleic Acid No. 2178) of the same molecule?
**A.** 0.0201

**Q.** What about the p-value (gene PTGS1, Genbank NM_000962, Nucleic Acid No. 329 (first entry)) of the same molecule?
**A.** 0.0419

**Q.** What about the p-value (gene PTGS1, Genbank NM_000962, Nucleic Acid No. 329 (second entry)) of the same molecule?
**A.** 0.0226

**Q.** What about the p-value (gene PTGS1, Genbank S36219, Nucleic Acid No. 1667) of the same molecule?
**A.** 0.0474

**Q.** And the p-value (gene PTGS2, Genbank AY151286, Nucleic Acid No. 2179)?
**A.** 0.0187

**Q.** What about the p-value (gene PTPN12, Genbank AL079909, Nucleic Acid No. 2180) of the same molecule?
**A.** 0.00163

**Q.** And the p-value (gene PTPRE, Genbank AA775177, Nucleic Acid No. 2181)?
**A.** 0.0161

**Q.** What about the p-value (gene RAB8A, Genbank BC002977, Nucleic Acid No. 2185) of the same molecule?
**A.** 0.00561

**Q.** And the p-value (gene RAB11FIP1, Genbank NM_025151, Nucleic Acid No. 2182)?
**A.** 0.0397

**Q.** What about the p-value (gene RAB11FIP4, Genbank BG248313, Nucleic Acid No. 465) of the same molecule?
**A.** 0.047

**Q.** What about the p-value (gene RAB18, Genbank AU145607, Nucleic Acid No. 2183) of the same molecule?
**A.** 0.0414

**Q.** What about the p-value (gene RAB31, Genbank NM_006868, Nucleic Acid No. 2184) of the same molecule?
**A.** 0.0378

**Q.** What about the p-value (gene RAC1, Genbank AJ012502, Nucleic Acid No. 551) of the same molecule?
**A.** 0.0328

**Q.** What about the p-value (gene RAI17, Genbank AF070622, Nucleic Acid No. 1313) of the same molecule?
**A.** 0.0318

**Q.** And the p-value (gene RAP1A, Genbank AW793677, Nucleic Acid No. 2186)?
**A.** 0.0194

**Q.** What about the p-value (gene RAP80, Genbank AF113675, Nucleic Acid No. 2187) of the same molecule?
**A.** 0.00717

**Q.** And the p-value (gene RARA, Genbank AJ417079, Nucleic Acid No. 2188)?
**A.** 0.00262

**Q.** What about the p-value (gene RASA1, Genbank AK021812, Nucleic Acid No. 2189) of the same molecule?
**A.** 0.0372

**Q.** And the p-value (gene RBBP5, Genbank NM_005057, Nucleic Acid No. 2190)?
**A.** 0.0383

**Q.** What about the p-value (gene REL, Genbank NM_002908, Nucleic Acid No. 2191) of the same molecule?
**A.** 0.0166

**Q.** What about the p-value (gene RERE, Genbank H71242, Nucleic Acid No. 2192) of the same molecule?
**A.** 0.0354

**Q.** And the p-value (gene RFWD2, Genbank BF725688, Nucleic Acid No. 2193)?
**A.** 0.0334

**Q.** What about the p-value (gene RFX2, Genbank AK024288, Nucleic Acid No. 2194) of the same molecule?
**A.** 0.0472

**Q.** What about the p-value (gene RG9MTD3, Genbank AI214944, Nucleic Acid No. 2195) of the same molecule?
**A.** 0.0449

**Q.** And the p-value (gene RHOQ, Genbank BC033251, Nucleic Acid No. 2196)?
**A.** 0.0402

**Q.** What about the p-value (gene RIN3, Genbank AA625133, Nucleic Acid No. 2197) of the same molecule?
**A.** 0.0322

**Q.** And the p-value (gene RIT1, Genbank AL037450, Nucleic Acid No. 1675)?
**A.** 0.0214

**Q.** What about the p-value (gene RNF24, Genbank BC000213, Nucleic Acid No. 2198) of the same molecule?
**A.** 0.0415

**Q.** And the p-value (gene ROCK1, Genbank AL050032, Nucleic Acid No. 2199)?
**A.** 0.0356

**Q.** What about the p-value (gene RSU1, Genbank AW515913, Nucleic Acid No. 2200) of the same molecule?
**A.** 0.0152

**Q.** What about the p-value (gene RUFY1, Genbank NM_025158, Nucleic Acid No. 2201) of the same molecule?
**A.** 0.0258

**Q.** What about the p-value (gene RUFY2, Genbank NM_017987, Nucleic Acid No. 2202) of the same molecule?
**A.** 0.00853

**Q.** And the p-value (gene SEC14L1, Genbank NM_003003, Nucleic Acid No. 2203)?
**A.** 0.0303

**Q.** And the p-value (gene SEC23B, Genbank BC005032, Nucleic Acid No. 2204)?
**A.** 0.0301

**Q.** And the p-value (gene SECTM1, Genbank BF939675, Nucleic Acid No. 2205)?
**A.** 0.0499

**Q.** What about the p-value (gene SERPINA1, Genbank AF119873, Nucleic Acid No. 2207) of the same molecule?
**A.** 0.0459

**Q.** And the p-value (gene SERPINA1, Genbank NM_000295, Nucleic Acid No. 2206)?
**A.** 0.022

**Q.** What about the p-value (gene SF3A2, Genbank L21990, Nucleic Acid No. 2208) of the same molecule?
**A.** 0.0469

**Q.** What about the p-value (gene SGK, Genbank NM_005627, Nucleic Acid No. 2209) of the same molecule?
**A.** 0.028

**Q.** And the p-value (gene SH3BGRL2, Genbank AL035700, Nucleic Acid No. 1736)?
**A.** 0.0258

**Q.** And the p-value (gene pp9099, Genbank NM_025201, Nucleic Acid No. 2169)?
**A.** 0.0311

**Q.** What about the “number of genes significantly up-regulated” value (of the 508 genes, deflazacort compared to prednisone) of the same molecule?
**A.** 30 genes
